We go through one molecule from EP4364731A1, “COMPOSITION FOR USE IN THE TREATMENT OF DISRUPTED NASAL MUCOSA AND EPITHELIAL BARRIER” (Laboratorios Cinfa, S.A., priority 2022, dated 2024).

What all share (format): cell-based
A short description of one data set: in vitro. Conditions: human, nasal epithelial cells. From the text:
Regarding hyaluronic acid, insolubility at concentrations above 0.5% w/v prevented the testing of higher concentrations. As for xylitol, a high in vitro cytotoxicity at concentrations above 0.5% w/v prevented the testing of higher concentrations.

Data set [1] concerns Human Nasal Epithelial Cells (HNEpC). The experiment in a line: Proliferation assay (MTT). The conditions noted are these: Epithelial cell, 24 hours. On the procedure:
(§1) In vitro studies were performed to assess the proliferation and re-epithelialization activity of compositions containing hyaluronic acid and xylitol as individual components and in combination. Three independent trials were carried out with 4 replicates per experimental trial.
(§2) Solutions in basal culture medium of hyaluronic acid (HA, White powder,CAS number 9067-32-7, MW: 1000-1400 kDa, Givaudan France SAS xylitol (Xyl,. White crystalline powder, CAS number 87-99-0 Roquette) or combinations of hyaluronic acid and xylitol at different concentrations were tested.
Human Nasal Epithelial Cells (HNEpC) from a primary cell line isolated from normal human nasal mucosa were purchased form PromoCell (ref: C-12620). The cell line was maintained in supplemented culture medium according to the supplier guidelines and was routinely grown as a monolayer in tissue culture grade flasks. When cells exceeded 70% confluence (but less than 90%), they were sub-cultured on new culture flasks. All the cell cultures were maintained in standard cell culture conditions (37 °C, 5% CO2 and 95% humidity).
MTT, a yellow tetrazole, is reduced to purple formazan by cell metabolic activity. This reduction is proportional to the amount of living cells in the well and, therefore, to cell proliferation over time. Cells cultured in 96-well plates were treated with the test compositions for 24 hours (37 °C, 5% CO2). After 24 hours of incubation, cells were washed with PBS and stained with MTT solution and incubated at 37 °C for 2 hours. At the end of this incubation period, the staining medium was removed and 100 µL of DMSO/well were added to solubilize the colored precipitate. The absorbance was read at 540 nm in the spectrophotometer plate reader. The cell proliferation percentage was calculated relative to the negative control, a condition in which cells were not treated with any product. Cells with treatments and negative control were cultured with basal medium. As positive control, cells were cultured in supplemented medium. The % of cell proliferation was calculated by the following formula: • % proliferation = AbT/AbC x 100 • AbT = absorbance at 540 nm after 24 hours of treatment • AbC = absorbance at 540 nm of the negative control (24 hours of cells growing in basal medium)

For data set [2] the test system is unchanged. The data set is described as follows: Re-epithelialization (scratch) assay. Conditions: 0.5% compound separately (FIG. 2). On the procedure: as §1, §2
Human Nasal Epithelial Cells (HNEpC) from a primary cell line isolated from normal human nasal mucosa were purchased form PromoCell (ref: C-12620). The cell line was maintained in supplemented culture medium according to the supplier guidelines and was routinely grown as a monolayer in tissue culture grade flasks. When cells exceeded 70% confluence (but less than 90%), they were sub-cultured on new culture flasks. […]
Cells were seeded in both sides of inserts attached on culture wells and were incubated in supplemented medium at 37 °C and 5% CO2. […] The area of the scratch was calculated using ImageJ software. The percentage of scratch closure (re-epithelialization percentage) was calculated relative to the negative control, a condition in which cells were not treated with any product. […]

Take `OC[C@@H](O)[C@H](O)[C@@H](O)CO` [Xyl, xylitol]: the MCC in “in vitro” is over 5000 µg/mL. Also, the activation at 0.125 % in data set [1] (0.125% compound alone, read-out: increase of cell proliferation in relation to negative control) was 0%. Also, in data set [1] (0.5% compound alone, read-out: increase of cell proliferation in relation to negative control), the activation at 0.5 % is 0%. Further, the activity at 0.125 % strength in data set [1] (basal medium, relative to negative control (100%), compound concentration 0.125 %w/v) is 99.9%. Besides, the activity at 0.5 % strength in data set [1] (basal medium, relative to negative control (100%), compound concentration 0.5 %w/v) was 98.2%. Besides, the “scratch closure after 72 hours of exposure” value in data set [2] is “did not”.
